Consider 70 compounds from patent US10407395B2, “Benzimidazole compound and medical use thereof” (Sumitomo Dainippon Pharma Co., Ltd., priority 2015, dated 2019).

For this test, the target named is human SCN9A (Nav 1.7) (Homo sapiens, UniProt Q15858). Briefly: Measurement of Na ion current (Nav 1.7) by automated patch clamp assay in cells stably-expressing human SCN9A. Type of test: cell-based. The settings on record: holding potential inactivating 50% Nav 1.7 channel (around −60 mV), read-out: Inhibitory rate (%) of Na ion current; for inhibition at 100 µM: compound concentration 100 μmol/L (footnoted examples); for inhibition at 10 µM: compound concentration 10 μmol/L. On the procedure:
Measurement of Na Ion Current in Voltage-Dependent Na Channel Gene Expressed Cell Nav 1.7 current was measured by automated patch clamp assay using cells stably-expressing human SCN9A. Cells Stably-expressing Human SCN9A Tetracycline-induced cells stably-expressing SCN9A were obtained from ChanTest Corporation. […] Next day, the Na ion current was measured by automated patch clamp assay. Electrophysiologic Measurement of Na Ion Current The Na ion current was measured by automated patch clamp assay using the following extracellular solution and intracellular solution. […] The control of the stimulating pulse and the data acquisition were carried out using EPC10 amplifier and Patch Master Software (HEKA). Data were sampled at 10 kHz, and low-pass filtered at 3 kHz. All the measurements were carried out at room temperature. […] The inhibitory rate of the Na ion current by the test compounds was calculated according to the following calculating formula with the peak current value generated by the depolarizing pulse. […] The inhibitory rate of Na ion current by each Example Compound was evaluated.

Chain of human SCN9A (Nav 1.7) (Q15858 whole entry): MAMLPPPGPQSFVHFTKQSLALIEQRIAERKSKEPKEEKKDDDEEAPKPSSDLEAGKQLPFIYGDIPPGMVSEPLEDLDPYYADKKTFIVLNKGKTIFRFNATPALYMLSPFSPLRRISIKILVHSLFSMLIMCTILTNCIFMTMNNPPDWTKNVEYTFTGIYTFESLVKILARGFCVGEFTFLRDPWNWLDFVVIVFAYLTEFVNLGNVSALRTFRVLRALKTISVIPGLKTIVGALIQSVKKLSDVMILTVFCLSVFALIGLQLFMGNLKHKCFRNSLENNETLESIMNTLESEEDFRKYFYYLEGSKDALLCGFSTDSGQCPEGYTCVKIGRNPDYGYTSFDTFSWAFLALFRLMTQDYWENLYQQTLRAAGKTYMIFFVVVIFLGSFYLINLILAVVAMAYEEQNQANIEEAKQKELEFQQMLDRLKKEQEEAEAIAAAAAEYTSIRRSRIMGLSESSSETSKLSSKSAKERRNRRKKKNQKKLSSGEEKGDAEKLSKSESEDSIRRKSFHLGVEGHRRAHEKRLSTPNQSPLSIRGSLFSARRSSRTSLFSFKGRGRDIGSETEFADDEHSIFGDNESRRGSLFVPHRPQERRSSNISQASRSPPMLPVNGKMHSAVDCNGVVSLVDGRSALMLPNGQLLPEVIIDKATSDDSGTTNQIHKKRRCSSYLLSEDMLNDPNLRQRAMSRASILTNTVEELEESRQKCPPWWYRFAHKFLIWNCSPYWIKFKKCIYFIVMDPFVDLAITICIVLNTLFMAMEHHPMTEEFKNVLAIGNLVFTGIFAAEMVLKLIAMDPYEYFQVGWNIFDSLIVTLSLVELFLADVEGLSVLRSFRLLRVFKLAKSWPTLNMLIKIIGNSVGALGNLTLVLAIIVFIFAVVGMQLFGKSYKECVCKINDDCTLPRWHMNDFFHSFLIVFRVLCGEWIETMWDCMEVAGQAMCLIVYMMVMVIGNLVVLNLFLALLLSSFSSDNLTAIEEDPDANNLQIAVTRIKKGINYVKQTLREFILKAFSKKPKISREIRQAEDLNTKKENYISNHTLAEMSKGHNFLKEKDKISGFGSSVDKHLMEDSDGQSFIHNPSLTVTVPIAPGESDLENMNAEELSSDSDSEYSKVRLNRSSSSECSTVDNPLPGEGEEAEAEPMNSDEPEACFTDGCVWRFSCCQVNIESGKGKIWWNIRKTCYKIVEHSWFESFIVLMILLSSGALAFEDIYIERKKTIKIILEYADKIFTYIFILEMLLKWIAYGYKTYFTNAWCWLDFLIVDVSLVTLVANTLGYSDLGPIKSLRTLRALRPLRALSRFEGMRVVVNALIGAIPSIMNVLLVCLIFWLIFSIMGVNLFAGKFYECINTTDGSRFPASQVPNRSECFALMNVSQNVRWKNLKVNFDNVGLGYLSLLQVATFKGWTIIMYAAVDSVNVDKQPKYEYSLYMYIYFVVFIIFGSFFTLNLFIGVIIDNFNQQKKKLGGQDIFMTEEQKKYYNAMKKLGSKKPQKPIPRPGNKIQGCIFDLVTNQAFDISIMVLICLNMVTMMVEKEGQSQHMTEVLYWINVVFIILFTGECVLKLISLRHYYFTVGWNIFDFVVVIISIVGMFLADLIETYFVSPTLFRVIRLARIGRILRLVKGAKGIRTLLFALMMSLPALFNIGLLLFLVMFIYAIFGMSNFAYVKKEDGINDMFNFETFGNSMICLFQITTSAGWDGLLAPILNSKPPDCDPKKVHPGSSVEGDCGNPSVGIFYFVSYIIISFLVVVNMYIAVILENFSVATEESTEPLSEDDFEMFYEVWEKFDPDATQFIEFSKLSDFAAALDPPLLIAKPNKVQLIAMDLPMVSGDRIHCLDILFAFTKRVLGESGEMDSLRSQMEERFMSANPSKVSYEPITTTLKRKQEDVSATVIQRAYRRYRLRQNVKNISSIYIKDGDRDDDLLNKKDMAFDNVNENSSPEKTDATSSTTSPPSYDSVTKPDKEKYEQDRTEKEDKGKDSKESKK

As to `O[C@H]1CC[C@H](n2cnc3ccc(Oc4ccc(C(F)(F)F)cn4)cc32)CC1` [Example 117], the inhibition at 100 µM is 44%.
With `OC1(Cn2cnc3ccc(Oc4ccc(C(F)(F)F)cn4)cc32)CCCC1` [Example 119], the inhibition at 10 µM is 36%.
Same read-out and setting: for `CC(C)(O)Cn1cnc2ccc(Oc3ccc(OC(F)(F)F)cn3)cc21` [Example 120] the value was 13%; for `C[C@]1(O)C[C@@H](n2cnc3ccc(Oc4ccc(OC(F)(F)F)cn4)cc32)C1` [Example 121], 21%; for `CC(C)(O)Cn1cnc2ccc(-c3ccc(C(F)(F)F)nc3)cc21` [Example 122], 14%.
Take `COc1cc(C(F)(F)F)ccc1-c1ccc2ncn(CC(C)(C)O)c2c1` [Example 124]: the inhibition at 10 µM amounted to 61%.
Turning to `COc1ccc(-c2ccc3ncn(CC(C)(C)O)c3c2)cn1` [Example 125], the inhibition at 10 µM came to 13%.
On to `Cc1ccc(-c2ccc3ncn(CC(C)(C)O)c3c2)cn1` [Example 126], for which the inhibition at 100 µM was 7%.
As for `CC(C)(O)Cn1cnc2ccc(-c3ccc(N4CCOCC4)nc3)cc21` [Example 127], the inhibition at 100 µM is 16%.
As for `COc1cc(F)ccc1-c1ccc2ncn(CC(C)(C)O)c2c1` [Example 128], the inhibition at 10 µM came out at 24%.
In the case of `Cc1cc(Cl)ccc1-c1ccc2ncn(CC(C)(C)O)c2c1` [Example 129], the inhibition at 10 µM was 51%.
On the same count and under the same terms, in the case of `CC(C)(O)Cn1cnc2ccc(-c3ccc(Cl)cc3F)cc21` [Example 130, 1-[6-(4-chloro-2-fluorophenyl)-1H-benzimidazol-1-yl]-2-methylpropan-2-ol] it was 48%; in that of `CC(C)(O)Cn1cnc2ccc(-c3ccc(Cl)cc3C(F)(F)F)cc21` [Example 131], 62%; in that of `CC(C)(O)Cn1cnc2ccc(-c3ccc(Cl)cc3Cl)cc21` [Example 132], 65%.
On the same count and under the same terms, for `CC(C)(O)Cn1cnc2ccc(-c3cccc(Cl)c3F)cc21` [Example 133] the value was 60%; for `CC(C)(O)Cn1cnc2ccc(-c3ccc(F)c(Cl)c3)cc21` [Example 134], 50%.
On the same count and under the same terms, in the case of `CC(C)(O)Cn1cnc2ccc(-c3ccc(S(C)(=O)=O)cc3F)cc21` [Example 135] it was 29%.
With `CC(C)(O)Cn1cnc2ccc(-c3ccc(C(F)(F)F)cc3Cl)cc21` [Example 136], the inhibition at 10 µM was determined as 70%.
On the same count and under the same terms, in the case of `CC(C)(O)Cn1cnc2ccc(-c3cccc(C(F)(F)F)c3)cc21` [Example 137] it was 38%.
For the compound `CC(C)(O)Cn1cnc2ccc(-c3ccccc3Cl)cc21` [Example 138], the inhibition at 10 µM stood at 34%.
On the same count and under the same terms, for `CC(C)(O)Cn1cnc2ccc(-c3cccc(Cl)c3)cc21` [Example 139] the value was 35%; for `CC(C)(O)Cn1cnc2ccc(-c3ccccc3OC(F)(F)F)cc21` [Example 140], 24%; for `CC(C)(O)Cn1cnc2ccc(-c3cccc(OC(F)(F)F)c3)cc21` [Example 141], 53%.
The same measure, in the same setting: in the case of `COc1cc(-c2ccc3ncn(CC(C)(C)O)c3c2)cc(C(F)(F)F)c1` [Example 142] it was 55%.
Still for that read-out and setting: for `CC(C)(O)Cn1cnc2ccc(-c3cc(F)cc(Cl)c3)cc21` [Example 143] the value was 35%; for `CC(C)(O)Cn1cnc2ccc(-c3cnoc3)cc21` [Example 144], 19%; for `CC(C)(O)Cn1cnc2ccc(-c3ccc4ncccc4c3)cc21` [Example 145], 15%.
As for `CC(C)(O)Cn1cnc2ccc(-c3ccoc3)cc21` [Example 146], the inhibition at 10 µM came out at 17%.
For the compound `CC(C)(O)Cn1cnc2ccc(-c3ccc4ocnc4c3)cc21` [Example 147], the inhibition at 10 µM turned out to be 15%.
Consider `OC1(Cn2cnc3ccc(-c4ccc(C(F)(F)F)cc4F)cc32)COC1` [Example 149], for which the inhibition at 10 µM came to 34%.
For the compound `OC1(Cn2cnc3ccc(-c4ccc(C(F)(F)F)cc4Cl)cc32)COC1` [Example 150], the inhibition at 10 µM was 47%.
As to `OC1(Cn2cnc3ccc(-c4ccc(Cl)cc4C(F)(F)F)cc32)COC1` [Example 151], the inhibition at 10 µM was determined as 44%.
As to `OC1(Cn2cnc3ccc(-c4cccc(Cl)c4Cl)cc32)COC1` [Example 152], the inhibition at 10 µM is 38%.
In the case of `OC1(Cn2cnc3ccc(-c4cccc(Cl)c4F)cc32)COC1` [Example 153], the inhibition at 10 µM was determined as 25%.
Regarding `OC1(Cn2cnc3ccc(-c4ccc(F)c(Cl)c4)cc32)COC1` [Example 154], the inhibition at 10 µM amounted to 52%.
Regarding `OC1(Cn2cnc3ccc(-c4ccc(Cl)c(Cl)c4)cc32)COC1` [Example 155], the inhibition at 10 µM is 55%.
Take `OC1(Cn2cnc3ccc(-c4ccc(Cl)cc4Cl)cc32)COC1` [Example 156]: the inhibition at 10 µM was determined as 54%.
Same read-out and setting: for `OC1(Cn2cnc3ccc(-c4cc(Cl)ccc4Cl)cc32)COC1` [Example 157] the value was 51%; for `OC1(Cn2cnc3ccc(-c4cc(Cl)cc(Cl)c4)cc32)COC1` [Example 158], 53%.
Same read-out and setting: for `Cc1c(Cl)cccc1-c1ccc2ncn(CC3(O)COC3)c2c1` [Example 159] the value was 45%; for `Cc1ccc(Cl)cc1-c1ccc2ncn(CC3(O)COC3)c2c1` [Example 160], 25%; for `OC1(Cn2cnc3ccc(-c4cc(C(F)(F)F)ccc4F)cc32)COC1` [Example 161], 49%.
The same measure, in the same setting: for `OC1(Cn2cnc3ccc(-c4cc(C(F)(F)F)ccc4Cl)cc32)COC1` [Example 162] the value was 63%; for `COc1cc(-c2ccc3ncn(CC4(O)COC4)c3c2)cc(C(F)(F)F)c1` [Example 163], 47%.
Consider `Cc1cc(-c2ccc3ncn(CC4(O)COC4)c3c2)cc(C(F)(F)F)c1` [Example 164], for which the inhibition at 10 µM turned out to be 63%.
In the case of `OC1(Cn2cnc3ccc(-c4cc(F)cc(Cl)c4)cc32)COC1` [Example 165], the inhibition at 10 µM came to 35%.
As to `Cc1c(-c2ccc3ncn(CC4(O)COC4)c3c2)cccc1C(F)(F)F` [Example 166], the inhibition at 10 µM worked out at 54%.
On the same count and under the same terms, for `COc1cccc(-c2ccc3ncn(CC4(O)COC4)c3c2)c1Cl` [Example 167] the value was 71%; for `OC1(Cn2cnc3ccc(-c4cccc(C(F)(F)F)c4Cl)cc32)COC1` [Example 168], 77%; for `Cc1cc(Cl)cc(-c2ccc3ncn(CC4(O)COC4)c3c2)c1` [Example 169], 46%.
On the same count and under the same terms, for `CC(C)(O)CCn1cnc2ccc(-c3ccc(F)cc3)cc21` [Example 170] the value was 32%; for `CC(C)(O)CCn1cnc2ccc(-c3ccc(Cl)cc3)cc21` [Example 171], 60%; for `CC(C)(O)CCn1cnc2ccc(-c3ccc(C(F)(F)F)cc3)cc21` [Example 172], 64%.
As for `COc1cc(C(F)(F)F)ccc1-c1ccc2ncn(CCC(C)(C)O)c2c1` [Example 173, 4-{6-[2-methoxy-4-(trifluoromethyl)phenyl]-1H-benzimidazol-1-yl}-2-methylbutan-2-ol], the inhibition at 10 µM was 80%.
Same read-out and setting: for `CC(C)(O)CCn1cnc2ccc(-c3ccc(C(F)(F)F)cc3F)cc21` [Example 174] the value was 66%; for `CC(C)(O)Cn1cnc2cc(-c3ccc(F)cc3)ccc21` [Example 175, 1-[5-(4-fluorophenyl)-1H-benzimidazol-1-yl]-2-methylpropan-2-ol], 16%.
As to `COc1cc(C(F)(F)F)ccc1-c1ccc2c(c1)ncn2CC(C)(C)O` [Example 176, 1-{5-[2-methoxy-4-(trifluoromethyl)phenyl]-1H-benzimidazol-1-yl}-2-methylpropan-2-ol], the inhibition at 10 µM was 73%.
Consider `CC(C)(O)Cn1cnc2cc(-c3ccc(N4CCOCC4)cc3)ccc21` [Example 177], for which the inhibition at 10 µM was 54%.
Still for that read-out and setting: for `CC(C)(O)Cn1cnc2cc(-c3ccc(Cl)cc3)ccc21` [Example 178] the value was 34%; for `CC(C)(O)Cn1cnc2cc(-c3ccc(C(F)(F)F)nc3)ccc21` [Example 180], 33%.
For `COc1ccc(-c2ccc3c(c2)ncn3CC(C)(C)O)cn1` [Example 182], the inhibition at 100 µM came to 11%.
As to `Cc1ccc(-c2ccc3c(c2)ncn3CC(C)(C)O)cn1` [Example 183], the inhibition at 100 µM is 30%.
With `CC(C)(O)Cn1cnc2cc(-c3ccc(C(F)(F)F)cc3)ccc21` [Example 184], the inhibition at 10 µM came to 67%.
On to `CC(C)(O)Cn1cnc2cc(-c3ccc(Cl)cc3Cl)ccc21` [Example 185], for which the inhibition at 10 µM was 45%.
On the same count and under the same terms, for `COc1cc(F)ccc1-c1ccc2c(c1)ncn2CC(C)(C)O` [Example 186] the value was 22%.
With `Cc1cc(Cl)ccc1-c1ccc2c(c1)ncn2CC(C)(C)O` [Example 187], the inhibition at 10 µM stood at 45%.
Still for that read-out and setting: in the case of `CC(C)(O)Cn1cnc2cc(-c3ccc(Cl)cc3F)ccc21` [Example 188] it was 51%; in that of `CC(C)(O)Cn1cnc2cc(-c3cccc(Cl)c3F)ccc21` [Example 189], 42%.
`CC(C)(O)Cn1cnc2cc(-c3ccc(F)c(Cl)c3)ccc21` [Example 190]: the inhibition at 10 µM is 42%.
The same measure, in the same setting: in the case of `CC(C)(O)Cn1cnc2cc(-c3ccc(Cl)cc3C(F)(F)F)ccc21` [Example 191] it was 52%.
